Measurements as given in the NIST ThermoML archive (doi:10.1016/j.jct.2008.10.005).
± gives the expanded uncertainty stated by the source.

How the values were obtained:
[1] = Molar enthalpy of transition or fusion; details: Crystal; DSC
[2] = Crystal; DTA

SMILES	Molar enthalpy of transition or fusion [1] [kJ/mol]	Normal melting temperature [2] [°C]
Clc1ccccc1Cl [1,2-dichlorobenzene]	12.4 ± 0.85	-17.30 ± 0.53
Clc1cccc(Cl)c1 [1,3-dichlorobenzene]	12.6 ± 0.85	-24.90 ± 0.53
Clc1ccc(Cl)cc1 [1,4-dichlorobenzene]	18.2 ± 0.89	53.00 ± 0.53
c1ccc2ccccc2c1 [naphthalene]	19 ± 0.9	80.10 ± 0.53
